Literature values, collected in patent US20250161397A1, “PLANT BASED FORMULATION FOR FAST PAIN RELIEF AND PREPARATION METHOD” (ARJUNA NATURAL PRIVATE LIMITED, priority 2022, published 2025).

How the values were obtained:
5-LOX = target: T1, 5-LOX (Homo sapiens, UniProt P09917); details: literature
T1 sequence (P09917 1-674): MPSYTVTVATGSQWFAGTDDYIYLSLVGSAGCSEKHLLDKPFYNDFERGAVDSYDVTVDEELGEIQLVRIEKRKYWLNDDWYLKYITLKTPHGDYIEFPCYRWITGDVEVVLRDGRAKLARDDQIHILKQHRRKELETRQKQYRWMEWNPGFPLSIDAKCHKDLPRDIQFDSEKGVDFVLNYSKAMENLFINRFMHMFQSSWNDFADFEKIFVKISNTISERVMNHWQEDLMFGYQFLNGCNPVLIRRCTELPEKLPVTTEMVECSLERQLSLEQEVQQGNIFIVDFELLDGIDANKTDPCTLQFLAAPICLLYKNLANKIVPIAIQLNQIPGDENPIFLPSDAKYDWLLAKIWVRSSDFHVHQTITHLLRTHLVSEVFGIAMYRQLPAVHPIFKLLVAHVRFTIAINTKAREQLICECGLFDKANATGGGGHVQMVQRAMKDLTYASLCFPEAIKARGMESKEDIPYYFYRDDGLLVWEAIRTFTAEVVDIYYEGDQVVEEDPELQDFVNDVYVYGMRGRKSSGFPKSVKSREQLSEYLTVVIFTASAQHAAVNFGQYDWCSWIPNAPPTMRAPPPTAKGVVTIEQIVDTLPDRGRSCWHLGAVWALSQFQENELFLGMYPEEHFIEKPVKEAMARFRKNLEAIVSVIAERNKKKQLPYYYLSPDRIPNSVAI

COX-1 [1] = target: COX-1 (Homo sapiens, UniProt P23219); details: Siemoneit 2008
Chain of COX-1 (Homo sapiens, UniProt P23219) (P23219 24-599): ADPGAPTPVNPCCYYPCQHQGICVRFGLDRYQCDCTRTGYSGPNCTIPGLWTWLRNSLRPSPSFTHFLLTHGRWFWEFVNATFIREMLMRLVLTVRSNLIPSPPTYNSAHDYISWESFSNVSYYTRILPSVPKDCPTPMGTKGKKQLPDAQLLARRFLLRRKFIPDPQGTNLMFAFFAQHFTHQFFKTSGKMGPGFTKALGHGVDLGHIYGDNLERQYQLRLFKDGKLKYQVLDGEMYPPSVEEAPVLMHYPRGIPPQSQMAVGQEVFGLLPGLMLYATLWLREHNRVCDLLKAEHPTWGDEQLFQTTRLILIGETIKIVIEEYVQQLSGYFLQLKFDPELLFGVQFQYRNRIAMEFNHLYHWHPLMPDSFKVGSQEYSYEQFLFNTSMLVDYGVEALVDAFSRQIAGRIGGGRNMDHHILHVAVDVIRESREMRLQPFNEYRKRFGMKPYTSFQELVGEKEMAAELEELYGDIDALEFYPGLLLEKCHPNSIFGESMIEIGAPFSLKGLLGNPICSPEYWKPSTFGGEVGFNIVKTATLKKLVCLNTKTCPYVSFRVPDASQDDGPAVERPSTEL

COX-2 [2] = target: T2, COX-2 (Homo sapiens, UniProt P35354); details: Siemoneit 2008
T2 sequence (P35354 18-604): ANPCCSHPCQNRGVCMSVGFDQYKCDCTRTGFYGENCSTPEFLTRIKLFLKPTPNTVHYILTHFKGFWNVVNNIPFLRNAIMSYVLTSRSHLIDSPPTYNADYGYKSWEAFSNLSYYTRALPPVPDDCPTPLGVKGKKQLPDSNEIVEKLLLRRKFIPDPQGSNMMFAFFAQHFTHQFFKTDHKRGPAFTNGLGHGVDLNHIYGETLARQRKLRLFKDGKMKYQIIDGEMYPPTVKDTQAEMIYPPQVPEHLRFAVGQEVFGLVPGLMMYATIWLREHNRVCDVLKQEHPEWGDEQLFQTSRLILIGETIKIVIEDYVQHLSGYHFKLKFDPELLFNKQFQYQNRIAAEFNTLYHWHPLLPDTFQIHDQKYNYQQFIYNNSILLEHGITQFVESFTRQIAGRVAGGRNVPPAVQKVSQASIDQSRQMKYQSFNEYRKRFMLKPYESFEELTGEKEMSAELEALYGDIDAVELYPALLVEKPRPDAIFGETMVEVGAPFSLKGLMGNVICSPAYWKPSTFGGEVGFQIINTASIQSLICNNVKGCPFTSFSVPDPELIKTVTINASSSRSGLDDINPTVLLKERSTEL

COX-1 [3] = details: Goel 2001
12/15 LOX = target: T3, 12/15 LOX (Rattus norvegicus, UniProt Q02759); details: in vitro, rat lung cytosolic fraction; Bezáková 2014
T3 construct: from tissue; host or cells: rat lung cytosolic fraction
T3 sequence (Q02759 1-663): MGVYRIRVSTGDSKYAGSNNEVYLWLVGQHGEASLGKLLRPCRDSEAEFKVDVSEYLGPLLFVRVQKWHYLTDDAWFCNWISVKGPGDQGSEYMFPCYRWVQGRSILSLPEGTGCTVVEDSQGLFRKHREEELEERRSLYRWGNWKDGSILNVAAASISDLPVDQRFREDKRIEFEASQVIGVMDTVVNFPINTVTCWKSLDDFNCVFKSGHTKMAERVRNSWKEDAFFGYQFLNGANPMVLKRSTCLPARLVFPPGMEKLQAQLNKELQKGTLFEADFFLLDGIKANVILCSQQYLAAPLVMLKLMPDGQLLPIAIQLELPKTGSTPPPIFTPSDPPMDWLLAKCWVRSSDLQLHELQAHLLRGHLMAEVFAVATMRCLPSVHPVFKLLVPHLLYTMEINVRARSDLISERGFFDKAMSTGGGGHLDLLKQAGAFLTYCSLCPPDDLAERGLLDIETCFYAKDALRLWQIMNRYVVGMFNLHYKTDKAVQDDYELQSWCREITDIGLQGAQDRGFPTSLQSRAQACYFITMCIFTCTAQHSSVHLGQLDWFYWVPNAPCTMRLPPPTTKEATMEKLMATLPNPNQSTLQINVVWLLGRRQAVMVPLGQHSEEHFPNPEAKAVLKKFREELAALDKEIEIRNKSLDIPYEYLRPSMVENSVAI

COX-2 [4] = details: HT-29 human colon cancer cells; Goel 2001

Row | SMILES | inhibition of 5-LOX (5-LOX) | inhibition of COX-1 (COX-1 [1]) | inhibition of COX-2 (COX-2 [2]) | effect on mRNA and protein expression of COX-1 (COX-1 [3]) | inhibition of 12/15 LOX (12/15 LOX) | effect on mRNA and protein expression of COX-2 (COX-2 [4])
1 | CC(=O)O[C@@H]1CC[C@@]2(C)[C@@H](CC[C@]3(C)[C@@H]2C(=O)C=C2[C@@H]4[C@@H](C)[C@H](C)CC[C@]4(C)CC[C@]23C)[C@@]1(C)C(=O)O [AKBA, acetyl-11-keto-β-boswellic acid] | good inhibition of 5-LOX | reversible inhibition of COX-1 | less efficiently inhibited by AKBA as compared to COX-1 | – | – | –
2 | COc1cc(/C=C/C(=O)CC(=O)/C=C/c2ccc(O)c(OC)c2)ccc1O [Curcumin, curcumin] | bind to the active site of 5-LOX and inhibit its activity | – | – | not COX-1 | competitive inhibitor of 12/15 LOX | inhibit the mRNA and protein expression of COX-2
